Data reported in patent US8304410B2, “Pyrrole compounds as inhibitors of mycobacteria, synthesis thereof and intermediates thereto” (priority 2007, dated 2012).
Values after ≈ are worked out from the molar mass of the structure shown.

Key:
Type in all cases: cell-based
M. tuberculosis INH-R = experiment: microbe, parasite or virus in culture; settings: for MIC: Mycobacterium tuberculosis, read-out: M. tuberculosis INH-R MIC; for M. tuberculosis INH-R MIC: isoniazid-resistant mycobacteria
M. tuberculosis RMP-R = experiment: microbe, parasite or virus in culture; settings: for MIC: Mycobacterium tuberculosis, read-out: M. tuberculosis RMP-R (Rif-R) MIC; for M. tuberculosis RMP-R (Rif-R) MIC: rifampicin-resistant mycobacteria
M. tuberculosis PZA-R = settings: pirazinamide-resistant mycobacteria
M. tuberculosis SM-R = settings: streptomycin-resistant mycobacteria

## CSc1ccc(-c2cc(CN3CCSCC3)c(C)n2-c2ccc(F)cc2)cc1 [Compound 3a, N-(4-fluorophenyl)-2-methyl-3-thiomorpholinomethyl-5-(4-methylsulfanylphenyl)pyrrole]
M. tuberculosis INH-R
  MIC: > 16 µg/mL
  M. tuberculosis INH-R MIC: >16 µg/mL
M. tuberculosis RMP-R
  MIC: 0.25 µg/mL (≈ 0.606 µM)

## CSc1ccc(-c2cc(CN3CCSCC3)c(C)n2-c2ccc(C(C)C)cc2)cc1 [Compound 3e]
M. tuberculosis INH-R
  M. tuberculosis INH-R MIC: 16 µg/mL
M. tuberculosis PZA-R
  PZA-R MIC: 1 µg/mL
M. tuberculosis SM-R
  SM-R MIC: 0.125 µg/mL
M. tuberculosis RMP-R
  M. tuberculosis RMP-R (Rif-R) MIC: 1 µg/mL

## CO[C@H]1/C=C/O[C@@]2(C)Oc3c(C)c(O)c4c(O)c(c(/C=N/N5CCN(C)CC5)c(O)c4c3C2=O)NC(=O)/C(C)=C\C=C\[C@H](C)[C@H](O)[C@@H](C)[C@@H](O)[C@@H](C)[C@H](OC(C)=O)[C@@H]1C [Rifampicin, RIF, Rifampicin]
M. tuberculosis INH-R
  MIC: 0.8 µg/mL (≈ 0.972 µM)
M. tuberculosis RMP-R
  MIC: > 64 µg/mL

## [H]/N=C(/N)N[C@H]1[C@H](O)[C@@H](O)[C@H](O[C@@H]2O[C@@H](C)[C@](O)(C=O)[C@H]2O[C@@H]2O[C@@H](CO)[C@H](O)[C@@H](O)[C@@H]2NC)[C@@H](N/C(N)=N\[H])[C@@H]1O [Streptomycin, SM, Streptomycin, reference compound]
M. tuberculosis INH-R
  MIC: 0.5 µg/mL (≈ 0.86 µM)
M. tuberculosis RMP-R
  MIC: 0.5 µg/mL (≈ 0.86 µM)

## CCc1ccc(-n2c(-c3ccc(SC)cc3)cc(CN3CCSCC3)c2C)cc1 [Compound 3c]
M. tuberculosis INH-R
  M. tuberculosis INH-R MIC: 16 µg/mL
M. tuberculosis PZA-R
  PZA-R MIC: 0.25 µg/mL
M. tuberculosis SM-R
  SM-R MIC: 0.25 µg/mL
M. tuberculosis RMP-R
  M. tuberculosis RMP-R (Rif-R) MIC: 0.25 µg/mL

## CSc1ccc(-c2cc(CN3CCN(C)CC3)c(C)n2-c2ccc(F)cc2)cc1 [Compound 3f]
M. tuberculosis INH-R
  M. tuberculosis INH-R MIC: 8 µg/mL
M. tuberculosis PZA-R
  PZA-R MIC: 2 µg/mL
M. tuberculosis SM-R
  SM-R MIC: 1 µg/mL
M. tuberculosis RMP-R
  M. tuberculosis RMP-R (Rif-R) MIC: 2 µg/mL

## CCCc1ccc(-n2c(-c3ccc(SC)cc3)cc(CN3CCSCC3)c2C)cc1 [Compound 3d]
M. tuberculosis INH-R
  M. tuberculosis INH-R MIC: 8 µg/mL
M. tuberculosis PZA-R
  PZA-R MIC: 0.5 µg/mL
M. tuberculosis SM-R
  SM-R MIC: 0.25 µg/mL
M. tuberculosis RMP-R
  M. tuberculosis RMP-R (Rif-R) MIC: 0.5 µg/mL

## CSc1ccc(-c2cc(CN3CCOCC3)c(C)n2-c2ccc(F)cc2)cc1 [Compound 3h]
M. tuberculosis INH-R
  M. tuberculosis INH-R MIC: >16 µg/mL
M. tuberculosis PZA-R
  PZA-R MIC: 0.5 µg/mL
M. tuberculosis SM-R
  SM-R MIC: 0.25 µg/mL
M. tuberculosis RMP-R
  M. tuberculosis RMP-R (Rif-R) MIC: 2 µg/mL

## CSc1ccc(-c2cc(CN3CCSCC3)c(C)n2-c2ccc(C)cc2)cc1 [Compound 3b]
M. tuberculosis INH-R
  M. tuberculosis INH-R MIC: 16 µg/mL
M. tuberculosis PZA-R
  PZA-R MIC: 0.5 µg/mL
M. tuberculosis SM-R
  SM-R MIC: 0.25 µg/mL
M. tuberculosis RMP-R
  M. tuberculosis RMP-R (Rif-R) MIC: 0.25 µg/mL

## NNC(=O)c1ccncc1 [Isoniazid, INH, Isoniazid, reference compound]
M. tuberculosis INH-R
  MIC: > 64 µg/mL
M. tuberculosis RMP-R
  MIC: 0.25 µg/mL (≈ 1.82 µM)
